Test results: BigSolDB 2.1

CC1(C)C[C@@H]1C(N)=O
Settings | solubility (mole fraction)
in chloroform, 286.26 K | 0.0357
in chloroform, 293.65 K | 0.0395
in chloroform, 296.64 K | 0.0429
in chloroform, 300.25 K | 0.0484
in chloroform, 303.47 K | 0.0529
in chloroform, 308.04 K | 0.0596
in chloroform, 310.96 K | 0.0665
in chloroform, 314.18 K | 0.0699
in chloroform, 317.45 K | 0.0789
in chloroform, 321.27 K | 0.0902
in dichloromethane, 288.72 K | 0.0152
in dichloromethane, 292.45 K | 0.0177
in dichloromethane, 296.11 K | 0.0205
in dichloromethane, 298.74 K | 0.0233
in dichloromethane, 300.83 K | 0.0248
in dichloromethane, 302.2 K | 0.0268
in dichloromethane, 304.6 K | 0.0301
in dichloromethane, 306.27 K | 0.0321
in dichloromethane, 309.29 K | 0.0367
in ethanol, 290.04 K | 0.089
in ethanol, 293.28 K | 0.0945
in ethanol, 296.81 K | 0.101
in ethanol, 299.25 K | 0.107
in ethanol, 302.71 K | 0.116
in ethanol, 306.04 K | 0.123
in ethanol, 309.67 K | 0.134
in ethanol, 313.53 K | 0.148
in ethanol, 318.09 K | 0.163
in ethyl acetate, 288.96 K | 0.0169
in ethyl acetate, 290 K | 0.0205
in ethyl acetate, 294.53 K | 0.0279
in ethyl acetate, 301.16 K | 0.0357
in ethyl acetate, 305.88 K | 0.0409
in ethyl acetate, 311 K | 0.0483
in ethyl acetate, 316.3 K | 0.0557
in ethyl acetate, 323.65 K | 0.0787
in ethyl acetate, 328.41 K | 0.0912
in toluene, 288.7 K | 0.00221
in toluene, 302.9 K | 0.004
in toluene, 311.23 K | 0.00599
in toluene, 318.11 K | 0.00858
in toluene, 324.07 K | 0.011
in toluene, 328.47 K | 0.0137
in toluene, 332.43 K | 0.016
in toluene, 338.07 K | 0.0219
in toluene, 342.25 K | 0.0259
in toluene, 348.06 K | 0.035
in water, 294.8 K | 0.00374
in water, 308.15 K | 0.00499
in water, 314.67 K | 0.00583
in water, 327.39 K | 0.00716
in water, 331.7 K | 0.00917
in water, 336.08 K | 0.0115
in water, 340.86 K | 0.0146
in water, 345.84 K | 0.0177
in water, 353.93 K | 0.026
